We go through nine molecules from US8399506B2, “Combinations of 4 bromo-2-(4-chlorophenyl)-5-(trifluoromethyl)-1H-pyrrole-3-carbonitrile and oxidizing agents” (Janssen Pharmaceutica, NV, priority 2006, dated 2013).

Read-outs that look alike come from different tables or passages of the source.

Data set [1] deals with Chlamydomonas sphagnophila CCAP 11/36E. The data set can be described thus: Experiment 1 poison plate assay, algae species (3). The format is cell-based. The settings on record: 24-well plates, BG 11 medium, after 3 weeks of exposure, total active ingredient, ratio (I) to (II) in label. The protocol: (§1) Synergism between component (I) and one of the components (II) was determined by a commonly used and accepted method described by Kull F. C. et al. in Applied Microbiology, 9, 538-541 (1961) using the Synergy Index, which is calculated as follows for two compounds A and B:
(§2) [formula] wherein: • QA is the concentration of compound A in ppm, acting alone, which produced an end point (e.g. MIC), • Qa is the concentration of compound A in ppm, in the mixture, which produced an end point (e.g. MIC), • QB is the concentration of compound B in ppm, acting alone, which produced an end point (e.g. MIC), • Qb is the concentration of compound B in ppm, in the mixture, which produced an end point (e.g. MIC).
(§3) MIC is the minimum inhibitory concentration, i.e. the lowest concentration of each test compound or mixture of test compounds sufficient to inhibit visible growth.
(§4) When the Synergy Index is greater than 1.0, antagonism is indicated. When the SI is equal to 1.0, additivity is indicated.

Data set [2] concerns Artemia salina (EG Artemia Cysts, Great Salt Lake strain). The data set can be described thus: Experiment 1 poison plate assay, Artemia salina larvae. It is filed as in vivo. The following applies: Artemia salina larvae (24 hours old), artificial seawater; after 24 hours of exposure; total active ingredient; ratio (I) to (II) in label. On the procedure:
as §1, §2, §3, §4

The test system of data set [3] is Anabaena cylindrica CCAP 1403/2A. In words: Experiment 2 poison plate assay, algae species (2). It is filed as cell-based. The settings on record: 24-well plates, BG 11 medium, after 3 weeks of exposure, total active ingredient, ratio (I) to (II) in label. On the procedure: as §1, §2, §3, §4
(§5) Synergism between component (I) and one of the components (II) was determined using the Synergy Index as outlined above in Experiment 1.

For data set [4] the test system is unchanged. In words: Experiment 1 poison plate assay, algae species (2). The following applies: for MIC-values in ppm: 24-well plates, BG 11 medium, after 3 weeks of exposure, total active ingredient, ratio (I) to (II) in label. It is filed as cell-based. On the procedure:
as §1, §2, §3, §4

For data set [5] the following is noted: buffer.
In the next data set the test system is Tribonema sp. CCAP 880/2. The data set can be described thus: Experiment 2 poison plate assay, algae species (4). It is filed as cell-based. The protocol:
as §1, §2, §3, §4, §5

In data set [6] the test system is Chlorella vulgaris CCAP 211/12. The data set can be described thus: Experiment 2 poison plate assay, algae species (1). The format is cell-based. The following applies: 24-well plates, BG 11 medium, after 3 weeks of exposure, total active ingredient, ratio (I) to (II) in label. The protocol: as §1, §2, §3, §4, §5

As to `N#Cc1c(-c2ccc(Cl)cc2)[nH]c(C(F)(F)F)c1Br` [(I), 4-bromo-2-(4-chlorophenyl)-5-(trifluoromethyl)-1H-pyrrole-3-carbonitrile], the MIC-values in ppm in data set [1] is 107.0 ppm; in data set [2], 0.13 ppm; in data set [3] (listed as (I) + (II-e) 100 + 0), 19 ppm; in data set [3] (listed as (I) + (II-f) 100 + 0) it was 25.3 ppm; in data set [3] (listed as (I) + (II-g) 100 + 0), 6.00 ppm; in data set [6], 107.0 ppm. Also, the MIC in data set [4] (CCAP1403/2A, 504 h, read-out: MIC-values in ppm) amounted to 107 µg/mL; in the data set with Tribonema sp. CCAP 880/2 (504 h, read-out: MIC-values in ppm), 107 µg/mL. Further, the half-life entry is recorded as “a couple of days” in data set [5] and “a few hours” in data set [5] (pH 8.3).
With `OO` [(II-a), hydrogen peroxide], the MIC-values in ppm was determined as 45.0 ppm in data set [1] and 25.3 ppm in data set [4].
Take `[Na+].[O-]Cl` [(II-b), sodium hypochlorite]: the MIC-values in ppm amounted to 107.0 ppm in data set [1], 200.00 ppm in data set [2] and 33.8 ppm in data set [4].
As to `[O][Cl+][O-]` [(II-c), chlorine dioxide], the MIC-values in ppm in data set [6] was found to be 9.49 ppm.
Still for that read-out and setting: to `O=S(=O)([O-])OOS(=O)(=O)[O-].[K+].[K+]` [(II-d), potassium peroxydisulfate] belongs 60.0 ppm.
Regarding `[K+].[K+].[O-][O-]` [(II-f), potassium peroxide], the MIC-values in ppm in data set [3] was determined as 10.7 ppm.
On to potassium (VI) ferrate [(II-h)], for which the MIC-values in ppm in the data set with Tribonema sp. CCAP 880/2 (Tribonema sp., 24-well plates, BG 11 medium, after 3 weeks of exposure, total active ingredient, ratio (I) to (II) in label) is recorded as 80.0 ppm.
For potassium nitrosodisulfonate [(II-g)], the MIC-values in ppm in data set [3] came to 80.0 ppm.
Still for that read-out and setting: to potassium superoxide [(II-e)] belongs 45.0 ppm.
